Laboratory results: US20230103514A1, “A TOPICAL COMPOSITION COMPRISING AN EXTRACT OF COMBINED HERBS COMPRISING LONGANAE ARILLUS FOR THE SKIN REGENERATION AND THE TREATMENT OR ALLEVIATION OF SKIN WOUND AND THE USE THEREOF” (MEDIHELPLINE CO., LTD, priority 2020, published 2023)

Tests used:
TSLP = experiment: Inhibitory effect on cytokine expression (RT-PCR, TNF alpha-induced HaCaT cells): TSLP; assay type: cell-based, human; details: TNFα 50 ng/ml, extract 1 μg/ml, Dex 200 nM, non-induced = 1
Description: (§1) In order to determine the anti-inflammatory activity of inventive extract, following inhibition test of cytokine expression using HaCaT cell was performed according to the procedure disclosed in the literature (Jeong et al., 2019, J. Invest. Dermatol., May; 139 (5): pp1098-1109). ?
(§2) HaCaT cell (human epithelial keratinocyte cell, 300493, CLS) was inoculated into DMEM medium containing 10% Fetal bovine serum, 100 units/ml of penicillin, 100 μg/ml of streptomycin (D6429, Sigma-Aldrich Co. Ltd) and was incubated in the incubator (HERA cell 150i, Thermo Fisher Scientific Co. Ltd.) maintaining optimum humidity (85-95%) and 5% CO2 atmosphere.
(§3) For performing gene expression test, the incubated cells were transferred to 12 wells and 50 ng/ml of TNF alpha (RC214-12, Biobasic Co. Ltd) was treated therewith for 1 hour to induce inflammatory response.
(§4) 1 hour after inducing the inflammation, 1 μg/ml of inventive extract prepared in Examples was treated with identical medium and subjected to incubation for 1 hour. After the incubation, RNA (FATRR-001, Favorgen) was extracted from the cell and cDNA was synthesized from the RNA using by cDNA synthesis kit (RRO36A, TAKARA). […]

IL-1β = experiment: Inhibitory effect on cytokine expression (RT-PCR, TNF alpha-induced HaCaT cells): IL-1β; assay type: cell-based, human; details: TNFα 50 ng/ml, extract 1 μg/ml, Dex 200 nM, non-induced = 1
Description: as §1, §2, §3, §4

SMILES: C[C@@H]1C[C@H]2[C@@H]3CCC4=CC(=O)C=C[C@]4(C)[C@@]3(F)[C@@H](O)C[C@]2(C)[C@@]1(O)C(=O)CO [Dex, Dexamethasone]
- TSLP expression (quantitative RT-PCR) (TSLP): 52.49
- IL-1β expression (quantitative RT-PCR) (IL-1β): 1.081
